Laboratory results reported in US20090076122A1, “PARP Modulators and Treatment of Cancer” (BIPAR SCIENCES, INC., priority 2005, published 2009).
Blank lines part the entries; values can stand above or below the molecule they belong to.

Key:
purified PARG = test: ATP sensitivity of purified PARG (PAR chain length, substrate concentration); type: biochemical; conditions: 45 minutes
Procedure: Poly(ADP-ribose)glycohydrolase (PARG) is purchased from Biomol or Alexis Co, which enzymes are equal in performance. Jurkat cells are cultured as reported (Buday et al. (1996) J Biol Chem 271:6159-6163) and nuclei are prepared by a published method (Smirnova et al. (2000) J Biol Chem 275:9377-9384). Enzymatic assays for PARP-1 are performed as published (deMurcia (2000) From DNA-damage and Stress Signalling to Cell Death: Poly ADP-ribosylation Reactions). PARG activity is analyzed with polyADP-ribosylated PARP-1 as substrate, containing long chains synthesized with spermine as cofactor (Kun et al. (2004) Biochemistry 43:210-216), or short chains where the cofactor is histone H1. The polyADP-ribose is labeled either with 3H or by biotinylated-NAD. PARG activity is quantitatively measured either by assaying the liberated 3H-ADP-ribose by TLC (Kirsten et al. (1991) Exp Cell Res 194:1-8) (chromatography carried out on PEI-cellulose sheets with 0.9 M acetic acid and 0.3 M LiCl as solvent) or by immunoassay of the remaining biotinylated (ADP-ribose)n (Bakondi et al. (2004) Exp Dermatol 13:170-178). All other reagents are of highest analytical purity. Short (Δ-Δ)- or long ([…]-[…])-chain PAR-PARP molecules are prepared as described in the methods and attached to the surface of assay wells. Purified PARG (15 mU/assay) is added to the wells in the presence of various concentrations of ATP and incubated for 45 minutes. The attached amount of polymers is determined in triplicate experiments (zero minute values for short chains were 0.5 OD, and 1.8 OD for long chain polymers). PARG (15 mU/assay) is incubated with various concentrations of 32P-PAR (long chain polymer) in the presence or absence of 6 mM of ATP for 45 minutes and the amount of liberated 32P-ADP-ribose is determined by TLC and liquid scintillation of the cut out portions of the plate located by autoradiography. Experiments are performed in triplicate.

[1] = molecular target: T1, PARP-1 activity of Jurkat cell nuclei (Homo sapiens, UniProt P09874); test: Effect of BCNU on the ATP sensitivity of PARP-1 activity of Jurkat cell nuclei; type: biochemical; conditions: nuclei pre-incubated with 400 nM BCNU for 30 minutes; FIG. 3
T1 construct: endogenous in cells; host or cells: Jurkat cell nuclei
Procedure: Nuclei equivalent to 2×10^5 Jurkat cells are pre incubated in the presence of various concentrations of ATP. Then PARP activities are assayed by admixing biotinylated-NAD (5 μM final conc.) and incubating for ten minutes. After separating the proteins on a 8% SDS-PAGE gel, the nitrocellulose-blotted, labeled proteins are detected by incubating with streptavidine-HPO complex (1 μg/ml) and by fluorography. Triplicate results are expressed as densitometric units. Experiments in triplicate are carried out as described in FIG. 2, with the exception that pre incubation is done with 400 nM of BCNU for 30 minutes.

[2] = molecular target: T2, PARP-1 arginine-34 mutant (R34G, Zn2+ finger 1) (Homo sapiens, UniProt P09874, R34G); test: Enzymatic activity of arginine-34 (R34G) mutant PARP-1 with ATP; type: biochemical; conditions: arginine-34 replaced by glycine in Zn2+ finger 1; 200 μM NAD+, 3 mM spermine, pH 7.3; FIG. 1
T2 construct: made in house; host or cells: Sf9 (baculovirus)
Source text: (§1) PARP-1 is purified from calf thymus as reported earlier (Molinet et al. (1993) EMBO J. 12:2109-2117). Alternatively recombinant PARP-1 is isolated from Sodoptera Fugiperda (Sf9) cells infected with recombinant baculovirus, expressing the human PARP-1 gene, constructed according to the instructions of Pharmingen. The cDNA of the amino acid exchange mutant R34G and R138 il of PARP-1 is created by the mega primer method (Kannann et al. (1989) Nucl Acids Res 17:5404). The mutated gene is cloned into the transfer vector pV 1392 and the recombinant virus is generated by the Baculogold technology of Pharmigen. The mutated proteins are expressed in Sf9 cells, purified and assayed as reported (Huang et al. (2004) Biochemistry 43:217-223; Kirsten et al. (2004) Methods in Molecular Biology 287, Epigenetics Protocols 137-149).
(§2) Assays are carried out as described (Kun et al. (2004) Biochemistry, 43:210-216) in triplicate (200 μM 3H labeled NAD+, 28 dpm/pmol, 0.5 pmol PARP-1, 3 mM spermine, pH 7.3 t=7.5 min). Identical results are obtained when ATP is replaced by its non-hydrolysable analog (Kun et al. (2004) Biochemistry, 43:210-216).

[3] = molecular target: T3, PARG activity of Jurkat cell nuclear extract (Homo sapiens, UniProt Q86W56); test: Effect of ATP on the glycohydrolase activity of Jurkat cell nuclear extract; type: biochemical; conditions: 8 mM ATP; polyADP-ribosylated PARP-1 with long polymers (50 ADP-ribose units); FIG. 4
T3 construct: endogenous in cells; host or cells: Jurkat cell nuclear extract
Procedure: Poly(ADP-ribose)glycohydrolase (PARG) is purchased from Biomol or Alexis Co, which enzymes are equal in performance. Jurkat cells are cultured as reported (Buday et al. (1996) J Biol Chem 271:6159-6163) and nuclei are prepared by a published method (Smirnova et al. (2000) J Biol Chem 275:9377-9384). Enzymatic assays for PARP-1 are performed as published (deMurcia (2000) From DNA-damage and Stress Signalling to Cell Death: Poly ADP-ribosylation Reactions). PARG activity is analyzed with polyADP-ribosylated PARP-1 as substrate, containing long chains synthesized with spermine as cofactor (Kun et al. (2004) Biochemistry 43:210-216), or short chains where the cofactor is histone H1. The polyADP-ribose is labeled either with 3H or by biotinylated-NAD. PARG activity is quantitatively measured either by assaying the liberated 3H-ADP-ribose by TLC (Kirsten et al. (1991) Exp Cell Res 194:1-8) (chromatography carried out on PEI-cellulose sheets with 0.9 M acetic acid and 0.3 M LiCl as solvent) or by immunoassay of the remaining biotinylated (ADP-ribose)n (Bakondi et al. (2004) Exp Dermatol 13:170-178). All other reagents are of highest analytical purity. Poly(ADP-ribosylated)-PARP-1 (2 μg protein is incubated with 50 μM of biotinylated-NAD as described above) and is attached to the walls of 96-well plates. ([…] et al. (1989) Nucl. Acids Res. 17:5404). […]

[4] = molecular target: T4, PARP-1 arginine-138 mutant (isoleucine, Zn2+ finger 2) (Homo sapiens, UniProt P09874, R138I); test: Enzymatic activity of arginine-138 (R138I) mutant PARP-1 with ATP; type: biochemical; conditions: arginine-138 mutated to isoleucine in Zn2+ finger 2; FIG. 1
T4 construct: made in house; host or cells: Sf9 (baculovirus)
Source text: as §1, §2

[5] = molecular target: T1, PARP-1 activity of Jurkat cell nuclei; test: Effect of ATP on the PARP-1 activity of Jurkat cell nuclei; type: biochemical; conditions: 1 mM ATP; isolated Jurkat cell nuclei; FIG. 2
Procedure: Poly(ADP-ribose)glycohydrolase (PARG) is purchased from Biomol or Alexis Co, which enzymes are equal in performance. Jurkat cells are cultured as reported (Buday et al. (1996) J Biol Chem 271:6159-6163) and nuclei are prepared by a published method (Smirnova et al. (2000) J Biol Chem 275:9377-9384). Enzymatic assays for PARP-1 are performed as published (deMurcia (2000) From DNA-damage and Stress Signalling to Cell Death: Poly ADP-ribosylation Reactions). PARG activity is analyzed with polyADP-ribosylated PARP-1 as substrate, containing long chains synthesized with spermine as cofactor (Kun et al. (2004) Biochemistry 43:210-216), or short chains where the cofactor is histone H1. The polyADP-ribose is labeled either with 3H or by biotinylated-NAD. PARG activity is quantitatively measured either by assaying the liberated 3H-ADP-ribose by TLC (Kirsten et al. (1991) Exp Cell Res 194:1-8) (chromatography carried out on PEI-cellulose sheets with 0.9 M acetic acid and 0.3 M LiCl as solvent) or by immunoassay of the remaining biotinylated (ADP-ribose)n (Bakondi et al. (2004) Exp Dermatol 13:170-178). All other reagents are of highest analytical purity. […] After separating the proteins on a 8% SDS-PAGE gel, the nitrocellulose-blotted, labeled proteins are detected by incubating with streptavidine-HPO complex (1 μg/ml) and by fluorography. Triplicate results are expressed as densitometric units.

solid tumor colon cancer = test: Treatment of a subject suffering from solid tumor colon cancer; type: in vivo; conditions: orally or parenterally; after few days
Procedure: A subject suffering from solid tumor colon cancer is treated with a therapeutically effective amount of compound of formula
(§3) where the compound is administered orally or parenterally.

inflammation = test: Treatment of a subject suffering from inflammation; type: in vivo; conditions: orally or parenterally; after few days
Procedure: A subject suffering from inflammation is treated with a therapeutically effective amount of compound of formula
as §3

CNS disease = test: Treatment of a subject suffering from CNS disease; type: in vivo; conditions: orally or parenterally; after few days
Procedure: A subject suffering from CNS disease is treated with a therapeutically effective amount of compound of formula
as §3

T1 sequence (P09874 whole entry): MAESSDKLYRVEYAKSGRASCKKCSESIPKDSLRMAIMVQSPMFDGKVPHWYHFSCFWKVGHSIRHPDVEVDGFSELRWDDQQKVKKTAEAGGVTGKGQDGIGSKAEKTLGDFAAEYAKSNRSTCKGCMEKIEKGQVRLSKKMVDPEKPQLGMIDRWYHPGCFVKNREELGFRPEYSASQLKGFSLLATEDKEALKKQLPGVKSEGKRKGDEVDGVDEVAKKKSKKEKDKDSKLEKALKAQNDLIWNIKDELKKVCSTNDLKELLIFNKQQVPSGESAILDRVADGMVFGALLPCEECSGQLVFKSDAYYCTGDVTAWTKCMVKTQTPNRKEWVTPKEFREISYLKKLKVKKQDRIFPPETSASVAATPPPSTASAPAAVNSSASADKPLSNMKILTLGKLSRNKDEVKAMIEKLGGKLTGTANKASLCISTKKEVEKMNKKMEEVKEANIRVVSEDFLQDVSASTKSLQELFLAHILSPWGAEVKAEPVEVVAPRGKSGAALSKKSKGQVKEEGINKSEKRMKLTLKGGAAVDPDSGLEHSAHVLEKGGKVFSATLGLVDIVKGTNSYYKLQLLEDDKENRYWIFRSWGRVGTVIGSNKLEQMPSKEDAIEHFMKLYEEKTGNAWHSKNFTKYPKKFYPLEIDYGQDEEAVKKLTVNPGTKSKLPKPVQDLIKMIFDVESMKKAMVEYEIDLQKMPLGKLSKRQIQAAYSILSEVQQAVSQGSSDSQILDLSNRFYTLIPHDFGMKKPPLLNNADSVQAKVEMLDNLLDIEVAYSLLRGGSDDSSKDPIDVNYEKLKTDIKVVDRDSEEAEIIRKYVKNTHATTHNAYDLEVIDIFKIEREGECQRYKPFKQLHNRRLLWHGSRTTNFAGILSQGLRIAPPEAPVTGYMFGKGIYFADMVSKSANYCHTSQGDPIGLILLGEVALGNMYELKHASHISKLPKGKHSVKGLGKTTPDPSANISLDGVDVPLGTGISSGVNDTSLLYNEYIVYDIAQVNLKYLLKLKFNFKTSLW
T3 sequence (Q86W56 whole entry): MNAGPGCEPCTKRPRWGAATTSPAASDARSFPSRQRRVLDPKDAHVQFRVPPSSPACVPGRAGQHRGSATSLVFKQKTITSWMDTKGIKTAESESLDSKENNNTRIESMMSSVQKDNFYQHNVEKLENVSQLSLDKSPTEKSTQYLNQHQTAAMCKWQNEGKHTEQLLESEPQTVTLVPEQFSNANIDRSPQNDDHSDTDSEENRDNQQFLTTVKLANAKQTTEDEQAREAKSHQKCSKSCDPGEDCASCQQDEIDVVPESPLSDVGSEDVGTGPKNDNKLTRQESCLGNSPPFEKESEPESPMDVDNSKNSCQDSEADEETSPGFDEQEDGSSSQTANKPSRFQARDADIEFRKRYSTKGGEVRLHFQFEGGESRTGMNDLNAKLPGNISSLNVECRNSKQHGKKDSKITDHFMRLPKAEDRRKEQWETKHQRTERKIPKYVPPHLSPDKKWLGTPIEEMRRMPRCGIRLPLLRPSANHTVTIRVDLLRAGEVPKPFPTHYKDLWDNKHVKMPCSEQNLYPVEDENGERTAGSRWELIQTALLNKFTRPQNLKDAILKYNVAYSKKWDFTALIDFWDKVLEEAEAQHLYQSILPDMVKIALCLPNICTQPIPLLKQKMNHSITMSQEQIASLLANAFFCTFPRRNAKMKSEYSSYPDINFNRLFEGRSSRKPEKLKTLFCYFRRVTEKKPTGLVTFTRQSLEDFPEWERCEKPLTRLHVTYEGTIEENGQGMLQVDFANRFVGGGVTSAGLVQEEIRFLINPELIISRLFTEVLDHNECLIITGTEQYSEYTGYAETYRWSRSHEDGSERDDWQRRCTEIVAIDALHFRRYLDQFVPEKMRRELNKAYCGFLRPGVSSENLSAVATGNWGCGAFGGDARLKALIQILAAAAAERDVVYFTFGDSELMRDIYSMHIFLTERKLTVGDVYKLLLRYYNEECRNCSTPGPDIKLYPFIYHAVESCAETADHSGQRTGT
T2 sequence (P09874 whole entry R34G): as the sequence (P09874 whole entry) above, with R34G counted along it
T4 sequence (P09874 whole entry R138I): as the sequence (P09874 whole entry) above, with R138I counted along it

exonucleotidase activity of PARG (liberation of ADP-ribose) (purified PARG; 6 mM ATP, long chain polymers as substrate, FIG. 6): activation | inhibitory action of ATP on PARP-1 enzymatic activity [2]: abolished | effect on PARG activity (decay of long PAR polymer) [3]: significantly accelerates | effect of the mutation on the inhibitory action of ATP on PARP-1 [4]: negligible effect | inhibition of PARP-1 activity in nuclei [5]: 80%
SMILES: Nc1ncnc2c1ncn2[C@@H]1O[C@H](COP(=O)(O)OP(=O)(O)OP(=O)(O)O)[C@@H](O)[C@H]1O [ATP]
acceleration of decay of longer ADP-ribose oligomers by PARG (purified PARG; long-chain PAR (average chain length 50 ADPR), PARG 15 mU/assay, FIG. 5): accelerated | acceleration of degradation of short ADP-ribose oligomers by PARG (purified PARG; short-chain PAR, PARG 15 mU/assay, FIG. 5): not accelerated | response to DNA damage by BCNU as assayed by PARP-1 activity, with externally added ATP [1]: completely removed

SMILES: O=c1ccc2c(I)c(O)ccc2o1 [drawing 14]
symptoms of the cancer (solid tumor colon cancer): markedly reduced

SMILES: O=c1ccc2c(I)c(O)ccc2o1 [drawing 20]
symptoms of inflammation (inflammation): markedly reduced

SMILES: O=c1ccc2c(I)c(O)ccc2o1 [drawing 26]
symptoms of CNS disease (CNS disease): markedly reduced
